In patent US10064867B2, “Hsp90 inhibitors” (Sloan-Kettering Institute for Cancer Research, priority 2011, dated 2018):
Where two headings read alike, the source gives them in different places.

How the values were obtained:
Hsp90 = Hsp90 Binding Assay (fluorescence polarization, cy3B-GM displacement, SKBr3 lysate); design: species or system human; settings: read-out: SKBr3 Binding Affinity
hERG = hERG (Homo sapiens, UniProt Q12809); experiment: hERG binding
Excerpt: In interpreting these test results, it will be appreciated that binding to Hsp90 for activity in the treatment of cancer or neurodegenerative disorders is desirable. In contrast, it is generally undesirable to have binding to hERG since binding to hERG can result in undesirable cardiac side effects. Therefore, having a low value for binding to Hsp90 and a high value for binding to hERG is desirable, bearing in mind that the units for the two measurement are different.

[1] = human cancer cell lysate (SKBr3), cy3B-GM displacement, 4° C., 24 h

hERG, sequence (Q12809 whole entry): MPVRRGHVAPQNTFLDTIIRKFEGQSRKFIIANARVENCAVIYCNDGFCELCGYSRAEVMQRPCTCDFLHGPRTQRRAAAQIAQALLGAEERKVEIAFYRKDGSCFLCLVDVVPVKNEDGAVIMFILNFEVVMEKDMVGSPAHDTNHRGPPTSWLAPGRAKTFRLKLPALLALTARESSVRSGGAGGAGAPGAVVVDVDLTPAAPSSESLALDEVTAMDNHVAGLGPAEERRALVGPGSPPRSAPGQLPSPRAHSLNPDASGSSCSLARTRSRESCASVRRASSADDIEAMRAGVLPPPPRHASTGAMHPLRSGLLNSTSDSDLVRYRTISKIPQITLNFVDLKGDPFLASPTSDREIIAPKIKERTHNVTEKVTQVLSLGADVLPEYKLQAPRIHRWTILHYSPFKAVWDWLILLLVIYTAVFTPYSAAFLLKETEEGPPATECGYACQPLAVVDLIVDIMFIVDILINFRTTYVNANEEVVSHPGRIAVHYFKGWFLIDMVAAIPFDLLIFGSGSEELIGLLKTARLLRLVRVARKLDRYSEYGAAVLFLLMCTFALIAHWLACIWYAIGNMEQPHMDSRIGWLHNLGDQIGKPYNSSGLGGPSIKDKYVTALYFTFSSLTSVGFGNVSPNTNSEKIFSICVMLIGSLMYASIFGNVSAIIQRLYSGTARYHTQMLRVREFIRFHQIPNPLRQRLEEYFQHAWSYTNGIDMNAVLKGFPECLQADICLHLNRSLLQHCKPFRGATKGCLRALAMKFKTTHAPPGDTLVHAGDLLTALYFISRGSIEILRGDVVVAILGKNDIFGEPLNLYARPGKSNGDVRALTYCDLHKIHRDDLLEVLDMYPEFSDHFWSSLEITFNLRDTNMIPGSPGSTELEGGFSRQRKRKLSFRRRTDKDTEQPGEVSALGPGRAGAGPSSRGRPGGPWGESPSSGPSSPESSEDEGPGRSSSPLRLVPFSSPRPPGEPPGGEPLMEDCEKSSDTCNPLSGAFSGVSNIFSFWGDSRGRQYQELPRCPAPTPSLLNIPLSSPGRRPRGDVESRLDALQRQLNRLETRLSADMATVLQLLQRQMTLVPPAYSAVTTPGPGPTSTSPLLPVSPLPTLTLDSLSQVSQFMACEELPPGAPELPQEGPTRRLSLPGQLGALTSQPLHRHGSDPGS

| SMILES | IC50 (Hsp90; [1]) [nM] | hERG binding (hERG) [µM] | IC50 (Hsp90) [nM] |
| --- | --- | --- | --- |
| CC(C)NCCCn1c(Sc2cc3c(cc2N(C)C)OCO3)nc2c(N)ncnc21 [DZ4-134, 8-(6-(Dimethylamino)benzo[d][1,3]dioxol-5-ylthio)-9-(3-(isopropylamine)propyl)-9H-purin-6-amine] | 55.3 | 11.0 | – |
| CN(C)c1cc2c(cc1Sc1nc3c(N)ncnc3n1CCCNC(C)(C)C)OCO2 [DZ4-135, 9-(3-(tert-Butylamino)propyl)-8-(6-(dimethylamino)benzo[d][1,3]dioxol-5-ylthio)-9H-purin-6-amine] | 45.4 | 14.0 | – |
| CC(C)NCCCn1c(Sc2cc3c(cc2I)OCO3)nc2c(N)ncnc21 [PU-H71, reference compound] | – | 1 | […] |
